Converted amounts (≈) assume the structure as drawn.
Assays:
Type in all cases: functional
[1] = tested on: Staphylococcus epidermidis; assay: Antibacterial activity against methicillin-sensitive Staphylococcus epidermidis 12-8 after 18 to 24 hrs by standard twofold serial dilution method
[2] = tested on: Staphylococcus epidermidis; assay: Antibacterial activity against methicillin-resistant Staphylococcus epidermidis 12-6 after 18 to 24 hrs by standard twofold serial dilution method
[3] = tested on: Mycobacterium tuberculosis; assay: Antimycobacterial activity against Mycobacterium tuberculosis H37Rv ATCC 27294 by MABA method
[4] = tested on: Pseudomonas aeruginosa; assay: Antibacterial activity against Pseudomonas aeruginosa 12-12 after 18 to 24 hrs by standard twofold serial dilution method
[5] = tested on: Klebsiella pneumoniae; assay: Antibacterial activity against extended-spectrum beta-lactamase producin Klebsiella pneumoniae 12-3 after 18 to 24 hrs by standard twofold serial dilution method
[6] = tested on: Streptococcus pneumoniae; assay: Antibacterial activity against Streptococcus pneumoniae 12-18 after 18 to 24 hrs by standard twofold serial dilution method
[7] = tested on: Escherichia coli; assay: Antibacterial activity against Escherichia coli 12-1 after 18 to 24 hrs by standard twofold serial dilution method
[8] = tested on: Klebsiella pneumoniae; assay: Antibacterial activity against Klebsiella pneumoniae 12-4 after 18 to 24 hrs by standard twofold serial dilution method
[9] = tested on: Escherichia coli; assay: Antibacterial activity against Escherichia coli ATCC 25922 after 18 to 24 hrs by standard twofold serial dilution method
[10] = tested on: Staphylococcus epidermidis; assay: Antibacterial activity against methicillin-resistant Staphylococcus epidermidis 12-1 after 18 to 24 hrs by standard twofold serial dilution method
[11] = tested on: Pseudomonas aeruginosa; assay: Antibacterial activity against Pseudomonas aeruginosa 12-14 after 18 to 24 hrs by standard twofold serial dilution method
[12] = tested on: Staphylococcus epidermidis; assay: Antibacterial activity against methicillin-sensitive Staphylococcus epidermidis 12-3 after 18 to 24 hrs by standard twofold serial dilution method
[13] = tested on: Staphylococcus epidermidis; assay: Antibacterial activity against methicillin-sensitive Staphylococcus epidermidis 12-1 after 18 to 24 hrs by standard twofold serial dilution method
[14] = tested on: Escherichia coli; assay: Antibacterial activity against extended-spectrum beta-lactamase producing Escherichia coli 12-15 after 18 to 24 hrs by standard twofold serial dilution method
[15] = tested on: Staphylococcus aureus; assay: Antibacterial activity against methicillin-resistant Staphylococcus aureus 12-5 after 18 to 24 hrs by standard twofold serial dilution method
[16] = tested on: Staphylococcus aureus; assay: Antibacterial activity against Staphylococcus aureus ATCC 25923 after 18 to 24 hrs by standard twofold serial dilution method
[17] = tested on: Staphylococcus aureus; assay: Antibacterial activity against methicillin-sensitive Staphylococcus aureus 12-4 after 18 to 24 hrs by standard twofold serial dilution method
[18] = tested on: Staphylococcus aureus; assay: Antibacterial activity against methicillin-resistant Staphylococcus aureus 12-4 after 18 to 24 hrs by standard twofold serial dilution method
[19] = tested on: Klebsiella pneumoniae; assay: Antibacterial activity against extended-spectrum beta-lactamase producin Klebsiella pneumoniae 12-4 after 18 to 24 hrs by standard twofold serial dilution method
[20] = tested on: Escherichia coli; assay: Antibacterial activity against extended-spectrum beta-lactamase producing Escherichia coli 12-14 after 18 to 24 hrs by standard twofold serial dilution method
[21] = tested on: Staphylococcus aureus; assay: Antibacterial activity against methicillin-resistant Staphylococcus aureus 12-2 after 18 to 24 hrs by standard twofold serial dilution method
[22] = tested on: Klebsiella pneumoniae; assay: Antibacterial activity against Klebsiella pneumoniae 12-2 after 18 to 24 hrs by standard twofold serial dilution method
[23] = tested on: Klebsiella pneumoniae; assay: Antibacterial activity against Klebsiella pneumoniae 12-1 after 18 to 24 hrs by standard twofold serial dilution method
[24] = tested on: Staphylococcus epidermidis; assay: Antibacterial activity against methicillin-sensitive Staphylococcus epidermidis 12-6 after 18 to 24 hrs by standard twofold serial dilution method
[25] = tested on: Klebsiella pneumoniae; assay: Antibacterial activity against extended-spectrum beta-lactamase producin Klebsiella pneumoniae 12-7 after 18 to 24 hrs by standard twofold serial dilution method
[26] = tested on: Staphylococcus aureus; assay: Antibacterial activity against methicillin-sensitive Staphylococcus aureus 12-5 after 18 to 24 hrs by standard twofold serial dilution method
[27] = tested on: Staphylococcus aureus; assay: Antibacterial activity against methicillin-sensitive Staphylococcus aureus 12-1 after 18 to 24 hrs by standard twofold serial dilution method
[28] = tested on: Escherichia coli; assay: Antibacterial activity against extended-spectrum beta-lactamase producing Escherichia coli 12-2 after 18 to 24 hrs by standard twofold serial dilution method
[29] = tested on: Staphylococcus aureus; assay: Antibacterial activity against methicillin-sensitive Staphylococcus aureus 12-2 after 18 to 24 hrs by standard twofold serial dilution method
[30] = tested on: Klebsiella pneumoniae; assay: Antibacterial activity against extended-spectrum beta-lactamase producin Klebsiella pneumoniae 12-14 after 18 to 24 hrs by standard twofold serial dilution method
[31] = tested on: Escherichia coli; assay: Antibacterial activity against extended-spectrum beta-lactamase producing Escherichia coli 12-3 after 18 to 24 hrs by standard twofold serial dilution method
[32] = tested on: Streptococcus pneumoniae; assay: Antibacterial activity against Streptococcus pneumoniae ATCC 49619 after 18 to 24 hrs by standard twofold serial dilution method

SMILES | MIC [1] [µg/mL] | MIC [2] [µg/mL] | MIC [3] [µg/mL] | MIC [4] [µg/mL] | MIC [5] [µg/mL] | MIC [7] [µg/mL] | MIC [8] [µg/mL] | MIC [9] [µg/mL] | MIC [10] [µg/mL] | MIC [11] [µg/mL] | MIC [12] [µg/mL] | MIC [13] [µg/mL] | MIC [14] [µg/mL] | MIC [15] [µg/mL] | MIC [16] [µg/mL] | MIC [17] [µg/mL] | MIC [18] [µg/mL] | MIC [19] [µg/mL] | MIC [21] [µg/mL] | MIC [22] [µg/mL] | other results
CO/N=C1/CCN(c2c(F)cc3c(=O)c(C(=O)O)cn([C@@H]4C[C@@H]4F)c3c2Cl)CC1N (some centres undefined) | 4 (≈ 9.07 µM) | 32 (≈ 72.6 µM) | 16 (≈ 36.3 µM) | 16 (≈ 36.3 µM) | > 128 | 2 (≈ 4.54 µM) | 1 (≈ 2.27 µM) | 1 (≈ 2.27 µM) | 16 (≈ 36.3 µM) | 128 (≈ 290 µM) | 1 (≈ 2.27 µM) | 0.5 (≈ 1.13 µM) | > 128 | 32 (≈ 72.6 µM) | 1 (≈ 2.27 µM) | 0.25 (≈ 0.567 µM) | 64 (≈ 145 µM) | 32 (≈ 72.6 µM) | 32 (≈ 72.6 µM) | 2 (≈ 4.54 µM) | MIC [6]: 8 µg/mL (≈ 18.1 µM); MIC [20]: > 128 µg/mL; MIC [23]: 2 µg/mL (≈ 4.54 µM); MIC [24]: 0.5 µg/mL (≈ 1.13 µM); MIC [25]: 16 µg/mL (≈ 36.3 µM); MIC [26]: 0.25 µg/mL (≈ 0.567 µM); MIC [27]: 0.25 µg/mL (≈ 0.567 µM); MIC [28]: > 128 µg/mL; MIC [29]: 0.25 µg/mL (≈ 0.567 µM); MIC [30]: > 128 µg/mL; MIC [31]: 32 µg/mL (≈ 72.6 µM); MIC [32]: 1 µg/mL (≈ 2.27 µM)
CO[C@H]1/C=C/O[C@@]2(C)Oc3c(C)c(O)c4c(O)c(c(/C=N/N5CCN(C)CC5)c(O)c4c3C2=O)NC(=O)/C(C)=C\C=C\[C@H](C)[C@H](O)[C@@H](C)[C@@H](O)[C@@H](C)[C@H](OC(C)=O)[C@@H]1C [RIFAMPIN] | – | – | 0.05 (≈ 0.0608 µM) | – | – | – | – | – | – | – | – | – | – | – | – | – | – | – | – | – | –
C[C@H]1COc2c(N3CCN(C)CC3)c(F)cc3c(=O)c(C(=O)O)cn1c23.C[C@H]1COc2c(N3CCN(C)CC3)c(F)cc3c(=O)c(C(=O)O)cn1c23.O [LEVOFLOXACIN] | 4 | 32 | 0.25 | 0.5 | 16 | 0.25 | < 0.008 | < 0.008 | 4 | 16 | 0.5 | 0.125 | 32 | 32 | < 0.008 | 0.125 | 32 | 8 | 32 | < 0.008 | MIC [20]: 16 µg/mL; MIC [23]: 0.06 µg/mL; MIC [24]: 0.125 µg/mL; MIC [26]: 0.125 µg/mL; MIC [27]: 0.125 µg/mL; MIC [28]: 16 µg/mL; MIC [29]: 0.125 µg/mL; MIC [30]: 16 µg/mL; MIC [31]: 32 µg/mL; MIC [32]: 0.125 µg/mL
NNC(=O)c1ccncc1 [ISONIAZID] | – | – | 0.05 (≈ 0.365 µM) | – | – | – | – | – | – | – | – | – | – | – | – | – | – | – | – | – | –
COc1c(N2C[C@@H]3CCCN[C@@H]3C2)c(F)cc2c(=O)c(C(=O)O)cn(C3CC3)c12 [MOXIFLOXACIN] | 1 (≈ 2.49 µM) | 16 (≈ 39.9 µM) | – | 2 (≈ 4.98 µM) | 32 (≈ 79.7 µM) | 0.5 (≈ 1.25 µM) | 0.03 (≈ 0.0747 µM) | < 0.008 | 0.25 (≈ 0.623 µM) | 16 (≈ 39.9 µM) | 0.125 (≈ 0.311 µM) | 0.03 (≈ 0.0747 µM) | 32 (≈ 79.7 µM) | 8 (≈ 19.9 µM) | < 0.008 | < 0.008 | 8 (≈ 19.9 µM) | 0.5 (≈ 1.25 µM) | 8 (≈ 19.9 µM) | 0.06 (≈ 0.149 µM) | MIC [6]: 0.5 µg/mL (≈ 1.25 µM); MIC [23]: 0.015 µg/mL (≈ 0.0374 µM); MIC [24]: 0.03 µg/mL (≈ 0.0747 µM); MIC [25]: 0.5 µg/mL (≈ 1.25 µM); MIC [26]: 0.015 µg/mL (≈ 0.0374 µM); MIC [27]: 0.015 µg/mL (≈ 0.0374 µM); MIC [28]: 32 µg/mL (≈ 79.7 µM); MIC [29]: < 0.008 µg/mL; MIC [30]: 64 µg/mL (≈ 159 µM); MIC [31]: 64 µg/mL (≈ 159 µM); MIC [32]: 0.06 µg/mL (≈ 0.149 µM)

Reference: ChEMBL document CHEMBL3352227, “Synthesis, antimycobacterial and antibacterial evaluation of l-[(1R, 2S)-2-fluorocyclopropyl]fluoroquinolone derivatives containing an oxime functional moiety” (Eur J Med Chem, 2014)
